Measured values taken from patent US11547300B2, “Methods of treating and imaging tumor micrometastases using photoactive immunoconjugates” (priority 2014, dated 2023).

What was measured:
[1] = test system: OVCAR5 cells; details: cited from earlier work
[2] = test system: EOC (NIH:OVCAR5) tumors; details: mouse, in vivo
Protocol: Micrometastatic mouse model. An orthotopic xenograft mouse model of human ovarian carcinomatosis was established in our laboratory with gynecologic oncologists (30). Athymic Swiss female Nu/Nu mice (20-25 grams and 6-8 weeks old; Cox Breeding Laboratories) were injected intraperitoneally (i.p.) with 16×10^6 NIH:OVCAR5 (EOC) cells in 2 mL phosphate-buffered saline. All experiments were conducted according to Massachusetts General Hospital Institutional Animal Care and Use Committee (IACUC) guidelines.

| tumor-to-bowel ratio [2] | tumor-to-bowel ratio from fitting the pharmacokinetic data to a model [2] | Compound | resistance relative to a platinum sensitive cell line [1] [fold] |
| --- | --- | --- | --- |
|  |  | N.N.[Cl][Pt][Cl] [cisplatin] | 7 |
| 2.7 | 2.8 | verteporfin |  |
